According to patent publication US7795386B2, “Peptides comprising an isoDGR motif” (Molmed SpA, priority 2004, dated 2010):
Read-outs that look alike come from different tables or passages of the source. *1 amine or outer side, *2 acyl side, *3 side chain or, on linkers, in order; H or OH if unused. Where a SMILES comes first, the peptide text is derived from it. Bridges are numbered along the chain shown (N, C = ends). [ ]: non-standard residue; d: D form. βAsp = O=C(O)[C@H](CC(=O)[*:2])N[*:1]

How the values were obtained:
αvβ3 integrin = target: T1, αvβ3 integrin (Homo sapiens, UniProt P05106+P06756); experiment: competitive binding of biotinylated FN-I5/streptavidin-peroxidase complexes to αvβ3-coated plates; settings: in words, FIG. 6C
T1 construct: purchased Immunological Sciences
Method: (C) Competitive binding of biotinylated FN-I5/streptavidin-peroxidase complexes to αvβ3-coated plates with various amounts of FN-I4-5 or FN-I4-5SGS (upper panel or peptides corresponding to the NGR loop (residues 258-271) of FN-I5 before and after heat treatment (lower panel).
Binding of biotinylated peptides (CNGRC (SEQ ID NO: 6)-TNF1-11, CARAC (SEQ ID NO: 36)-TNF1-11 and FN-I5) to purified integrins was studied using streptavidin-peroxidase conjugate complexes. Complexes were prepared by mixing various quantities (0.5-1 μg) of heat-treated biotinylated peptides in DPBS containing 3% BSA with 0.03 units of streptavidinperoxidase (binding capacity: 1 μg of biotin/unit of streptavidin-peroxidase) (final volume 15 μl). Complexes were diluted in 3% BSA-DPBS (1:500), added to microtiterplates coated with integrins as described above, and incubated for 2 h at room temperature. After washing with DPBS, bound peroxidase was detected by chromogenic reaction as described above. Each assay was carried out in triplicate.
The binding of heat-treated FN-I5, CNGRC (SEQ ID NO: 6)-TNF and short peptides to purified αvβ3, αvβ5, α5β1 and α1β1 integrins was then investigated by direct and competitive ELISA with integrins adsorbed on microtiterplates.

[1] = stability / deamidation kinetics of peptides by RP-HPLC; assay type: physicochemical; settings: for stability under integrin binding assay conditions: assay conditions of competitive binding
Method: RP-HPLC analysis of NGR-pep and its synthetic deamidation products (DGR-pep and isoDGR-pep) before and after incubation for 4 h at 37° C. in 0.1 M ammonium bicarbonate buffer, pH 8.5 (A and B) and in DMEM, pH 7.3 (A, inset). RP-HPLC was performed on a C-18 column (PepMap C18, PerSeptive Biosystem) as follows: buffer A, 0.1% trifluoroacetic acid (TFA) in water; buffer B, 95% acetonitrile, 0.1% TFA; 0% B for 10 min, linear gradient 20-40% B in 30 min, 100% B for 10 min; 0% B for 15 min (flow rate, 0.5 ml/min). Peak 1, 2 and 3 were identified by spiking the NGR-pep, after 2 h of incubation, with equal amount of the indicated peptide (C). NGR-pep (peak 1) rapidly converts to compounds corresponding to DGR-pep (peak 2) and isoDGR-pep (peak 3) (half-life, 2-4 h).
The stability of NGR and the kinetics of LisoDGR or DDGR formation at pH 7.3 (DMEM) and pH 8.5 (ammonium bicarbonate), were then investigated. To this aim the CNGRCGVRY (SEQ ID NO: 42) peptide (called NGR-pep) was synthesized and analyzed by reverse-phase HPLC, before and after incubation at 37° C. Residues GVRY (SEQ ID NO: 72) were added to the C-terminus of CNGRC (SEQ ID NO: 6) to enable column adsorption. In addition five peptides called, DGR-pep, D-DGR-pep, isoDGR-pep, D-isoDGR and SGR-pep, corresponding to the same sequence of NGR-pep except for the presence of D, D-D, L-isoD, D-isoD and S, respectively in place of N were prepared. The half-life of NGR-pep at pH 7.3 and 8.5, estimated from the height of the main chromatographic peak (peak 1), was about 4 and 2 h, respectively (FIG. 5A, inset). Peptides corresponding to deamidation products were stable under these conditions (FIG. 5B).
To identify peaks and to verify that the measured half-life correspond to Asn deamidation, and not to other structural changes, we analyzed heat-treated NGR-pep peptide spiked with fresh NGR-pep, or DGR-pep or isoDGR-pep peptides.

αvβ3 = target: T2, αvβ3 (Homo sapiens, UniProt P05106+P06756); experiment: IC50 (μM)
T2 construct: purchased Immunological Sciences
Description: Table printed on a drawing sheet, Figure 7
Head of the field: IC50 (μM)
The patent's description of the figure: FIG. 7 Competitive binding of NGR-TNF to αvβ3 with NGR-pep and its deamidated products to αvβ3.
First copying reader's note: Legend table of panel A (inhibition of bio-NGR-TNF binding to αvβ3): the first three body rows belong to the upper plot and the last five to the lower plot, which prints no head of its own; the plot marker symbols are left out.
Where the first naming reader finds the target: description_of_the_figure: FIG. 7 Competitive binding of NGR-TNF to αvβ3 with NGR-pep and its deamidated products to αvβ3.

EA.hy926 cells = experiment: EA.hy926 cell adhesion assay on coated microtiter plates; assay type: cell-based, human; settings: for EA.hy926 cell adhesion to coated product after heat-treatment: 0.1 M ammonium bicarbonate buffer, pH 8.5, 16 h at 37° C.; for EA.hy926 cell adhesion to coated product: before heat treatment
Method: Adhesion of EA.hy926 cells to microtiter plates coated with various peptides and proteins before and after accelerated aging. Accelerated aging was performed by peptide incubation in 0.1 M ammonium bicarbonate buffer, pH 8.5, for 16 h at 37° C. (“heat-treatment”). Adhesion to: recombinant FN-I4-5 or control protein (FN-I4-5 (SGS)) (A), synthetic FN-I5 (B), recombinant CNGRC-TNF, CNGRC-TNF1-11 and control CARAC-TNF1-11 peptide (C), CDGRC-TNF (D). Heat-treated (37° C.) and untreated (−20° C.) products were adsorbed onto the plastic surface of microtiter wells (overnight at 4° C.). Microphotograph of wells coated with 30 μg/ml of heat-treated FN-I5 or BSA (B, right) or with 10 μg/ml of recombinant CNGRC-TNF or CDGRC-TNF (C, right), ×200. Cell adhesion assay was carried out as described in Materials and Methods. The TNF fusion constructs, including the TNF1-11 fusion constructs, were made as described Materials and Methods, and include a “G” linker.
Untreated and “heat treated” fibronectin fragments, peptides and peptide-TNF conjugates were diluted at the desired concentration with 150 mM sodium chloride, 50 mM sodium phosphate, pH 7.3, and added to 96-well polyvinyl chloride microtiter plates (Falcon, Becton Dickinson). After overnight incubation at 4° C., the plates were washed, seeded with EA.hy926 cell in DMEM containing 0.1% BSA (40000 cells/well) and left to incubate for 2-3 h at 37° C., 5% CO2. Adherent cells were fixed and stained with crystal violet as described (Curnis et al., 2005).

L-M mouse fibroblasts = experiment: standard cytolytic assay with L-M mouse fibroblasts; assay type: cell-based; settings: in vitro, L-M murine fibroblasts
Description: Protein purity and identity were checked by SDS-PAGE, electrospray mass spectrometry and gel-filtration chromatography.
The cDNA coding for DGR-TNF (mouse TNF fused with the C-terminus of CDGRCG (SEQ ID NO: 24)) was obtained by PCR on NGR-TNF plasmid, using the following primers: 5′ […] 3′ (SEQ ID NO: 43) (5′ primer); 5′ […] ′3 (SEQ ID NO: 44) (3′ primer). Both primers were designed to allow the directional cloning into a pET101/D-TOPO plasmid expression kit (Invitrogen). The underlined sequence in 5′ primer contains the sequence necessary to enable the directional cloning and the initial translation codon whereas the 3′ primer contains the stop codon (underlined). The PCR reaction and the cloning procedure were performed as recommended by the manufacturer's instruction. […] The column was washed extensively 100 mM Tris-HCl buffer containing pH 8.0, loaded with DGR-TNF crude extract, diluted in 20 mM Tris-HCl buffer conatining 2 mM EDTA pH 8.0, and desorbed by elution with 7 M urea, 100 mM Tris-HCl, pH 8.0. DGR-TNF was then refolded as described (1). Briefly, the denatured products were dialyzed against 2.33 M urea, 100 mM Tris-HCl, pH 8.0 at 4° C. (140 min), followed by 1.55 M urea, 100 mM Tris-HCl, pH 8.0 (140 min), and 1 M urea, 100 mM Tris-HCl, pH 8 (140 min). Finally the products were dialyzed against 100 mM Tris-HCl, pH 8.0 (48 h). The products were centrifuged at 13000×g (10 min, 4° C.) and concentrated by ultra-filtration through a 10 KDa cut-off filter. All solutions used in the purification and refolding steps were prepared with sterile and endotoxin-free water (S.A.L.F. Laboratorio Farmacologico SpA, Bergamo, Italy). Protein concentration was measured using the BCA Protein Assay Reagent (Pierce, Rockford, Ill.). Protein purity and identity were checked by SDS-PAGE, electrospray mass spectrometry (ESI-MS) and analytical gel-filtration chromatography.

T1 sequence (P06756 31-889 limits assumed): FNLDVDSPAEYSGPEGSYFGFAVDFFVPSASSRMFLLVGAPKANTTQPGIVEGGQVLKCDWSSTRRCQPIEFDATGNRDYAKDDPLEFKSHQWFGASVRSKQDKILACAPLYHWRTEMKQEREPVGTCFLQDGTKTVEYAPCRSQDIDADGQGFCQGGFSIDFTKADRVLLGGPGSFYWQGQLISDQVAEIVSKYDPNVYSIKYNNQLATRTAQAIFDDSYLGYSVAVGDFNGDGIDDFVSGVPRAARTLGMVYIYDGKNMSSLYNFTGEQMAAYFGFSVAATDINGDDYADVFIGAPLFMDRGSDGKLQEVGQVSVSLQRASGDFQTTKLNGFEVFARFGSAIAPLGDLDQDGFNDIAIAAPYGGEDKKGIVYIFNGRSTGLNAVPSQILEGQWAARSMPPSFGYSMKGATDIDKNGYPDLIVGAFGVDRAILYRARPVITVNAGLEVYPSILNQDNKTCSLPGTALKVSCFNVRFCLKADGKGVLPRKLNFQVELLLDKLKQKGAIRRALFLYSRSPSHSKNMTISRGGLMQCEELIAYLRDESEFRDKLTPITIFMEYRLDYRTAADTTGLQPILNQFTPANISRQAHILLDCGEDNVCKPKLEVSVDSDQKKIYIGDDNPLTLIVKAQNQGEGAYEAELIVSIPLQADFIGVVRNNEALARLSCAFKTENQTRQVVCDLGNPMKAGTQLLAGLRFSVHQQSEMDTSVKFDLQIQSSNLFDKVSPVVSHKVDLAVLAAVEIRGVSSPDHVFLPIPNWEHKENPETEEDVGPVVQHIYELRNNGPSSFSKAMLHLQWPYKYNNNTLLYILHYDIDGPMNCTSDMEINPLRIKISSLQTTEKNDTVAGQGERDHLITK
T1 sequence (P06756 891-1048 partner limits assumed): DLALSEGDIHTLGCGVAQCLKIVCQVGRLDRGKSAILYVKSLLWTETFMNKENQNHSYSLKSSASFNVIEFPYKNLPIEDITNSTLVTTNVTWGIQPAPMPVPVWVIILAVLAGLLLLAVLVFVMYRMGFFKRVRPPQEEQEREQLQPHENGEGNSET
T1 sequence (P05106 27-788): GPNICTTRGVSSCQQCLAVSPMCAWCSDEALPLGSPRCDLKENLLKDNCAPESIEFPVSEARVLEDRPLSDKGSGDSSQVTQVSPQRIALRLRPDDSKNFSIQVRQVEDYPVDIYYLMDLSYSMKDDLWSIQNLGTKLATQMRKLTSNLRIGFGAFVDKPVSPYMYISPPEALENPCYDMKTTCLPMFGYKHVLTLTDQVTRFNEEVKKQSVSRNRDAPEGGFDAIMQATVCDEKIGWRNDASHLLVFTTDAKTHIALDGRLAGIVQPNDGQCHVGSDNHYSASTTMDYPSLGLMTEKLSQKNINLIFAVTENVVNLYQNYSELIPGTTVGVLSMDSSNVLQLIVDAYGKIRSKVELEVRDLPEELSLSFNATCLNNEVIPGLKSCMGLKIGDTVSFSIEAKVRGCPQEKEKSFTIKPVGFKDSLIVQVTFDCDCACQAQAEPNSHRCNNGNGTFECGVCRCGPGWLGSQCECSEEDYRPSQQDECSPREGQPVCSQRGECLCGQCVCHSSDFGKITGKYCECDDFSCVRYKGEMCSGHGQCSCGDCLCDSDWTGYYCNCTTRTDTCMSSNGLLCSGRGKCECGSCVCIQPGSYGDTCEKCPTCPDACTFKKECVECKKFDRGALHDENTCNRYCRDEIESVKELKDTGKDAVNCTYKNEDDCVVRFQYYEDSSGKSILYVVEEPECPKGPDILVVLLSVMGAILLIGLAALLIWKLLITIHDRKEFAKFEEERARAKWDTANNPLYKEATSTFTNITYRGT
T2 sequence (P05106 27-788 limits assumed): as the sequence (P05106 27-788) above
T2 sequence (P06756 31-889 limits assumed): as the sequence (P06756 31-889 limits assumed) above
T2 sequence (P06756 891-1048 limits assumed): as the sequence (P06756 891-1048 partner limits assumed) above

Loop-RGGNG: control loop peptide of FN-I5 with scrambled sequence at the GNGRG site (LQCISTRGGNGEWKCE) [reference compound]
competition of the binding of FN-I5 to αvβ3 (αvβ3 integrin): not

CC(C)[C@H](NC(=O)CNC(=O)[C@@H]1CSSC[C@H](N)C(=O)N[C@@H](CC(N)=O)C(=O)NCC(=O)N[C@@H](CCCNC(=N)N)C(=O)N1)C(=O)N[C@@H](CCCNC(=N)N)C(=O)N[C@@H](Cc1ccc(O)cc1)C(=O)O [NGR-pep, CNGRCGVRY] (H-CNGRCGVRY-OH; disulfide 1-5; N-terminus and C-terminus assumed)
stability when stored in water ([1]; 37° C., water): stable for more than one week
half-life ([1]; ammonium bicarbonate buffer and DMEM, 37° C., pH 8.5 ammonium bicarbonate and DMEM pH 7.3 (FIG. 5 legend), read-out: half-life of conversion to DGR-pep and isoDGR-pep): 2 to 4 h
half-life ([1]; ammonium bicarbonate buffer, pH 8.5 (0.1 M ammonium bicarbonate), 37° C., read-out: half-life (height of main chromatographic peak) (converted)): ~2 h
half-life ([1]; pH 7.3 (DMEM), 37° C., read-out: half-life (height of main chromatographic peak) (converted)): ~4 h
IC50 (αvβ3): 25 µM

CC(C)[C@H](NC(=O)CNC(=O)[C@@H]1CSSC[C@H](N)C(=O)N[C@@H](CO)C(=O)NCC(=O)N[C@@H](CCCNC(=N)N)C(=O)N1)C(=O)N[C@@H](CCCNC(=N)N)C(=O)N[C@@H](Cc1ccc(O)cc1)C(=O)O [SGR-pep] (H-CSGRCGVRY-OH; disulfide 1-5; N-terminus and C-terminus assumed)
IC50 (αvβ3): > 1000 µM

FN-I4-5: recombinant human fibronectin 4-5th type I repeats, residue 184-273, His-tag at the N-terminus
competition of the binding of FN-I5 to αvβ3 (αvβ3 integrin): could compete
EA.hy926 cell adhesion to coated product after heat-treatment (EA.hy926 cells): increase of cell adhesion
EA.hy926 cell adhesion to coated product (EA.hy926 cells): promoted cell adhesion

CC(C)[C@H](NC(=O)CNC(=O)[C@@H]1CSSC[C@H](N)C(=O)N[C@H](CC(=O)O)C(=O)NCC(=O)N[C@@H](CCCNC(=N)N)C(=O)N1)C(=O)N[C@@H](CCCNC(=N)N)C(=O)N[C@@H](Cc1ccc(O)cc1)C(=O)O [DDGR-pep] (H-C[dD]GRCGVRY-OH; disulfide 1-5 (inferred); N-terminus and C-terminus assumed)
stability under integrin binding assay conditions [1]: stable

CC(C)[C@H](NC(=O)CNC(=O)[C@@H]1CSSC[C@H](N)C(=O)N[C@@H](CC(=O)O)C(=O)NCC(=O)N[C@@H](CCCNC(=N)N)C(=O)N1)C(=O)N[C@@H](CCCNC(=N)N)C(=O)N[C@@H](Cc1ccc(O)cc1)C(=O)O [DGR-pep] (H-CDGRCGVRY-OH; disulfide 1-5; N-terminus and C-terminus assumed)
IC50 (αvβ3): 60 µM

Loop-GNGRG: peptide corresponding to the NGR loop of FN-I5 (LQCISTGNGRGEWKCE)
competition of the binding of FN-I5 to αvβ3 (αvβ3 integrin): Binding competition was observed

Cys-Asp-Gly-Arg-Cys-Gly-(SEQ ID NO: 24)TNF [CDGRC-TNF]
Cytolytic Activity (L-M mouse fibroblasts): 2.59 (±0.69)×10^8 U/mg
Cytolytic Activity (L-M mouse fibroblasts; listed as DGR-TNF): 2.5×10^8 U/mg
EA.hy926 cell adhesion to coated product after heat-treatment (EA.hy926 cells): completely inactive
EA.hy926 cell adhesion to coated product (EA.hy926 cells): completely inactive

CC(C)[C@H](NC(=O)CNC(=O)[C@@H]1CSSC[C@H](N)C(=O)N[C@H](C(=O)O)CC(=O)NCC(=O)N[C@@H](CCCNC(=N)N)C(=O)N1)C(=O)N[C@@H](CCCNC(=N)N)C(=O)N[C@@H](Cc1ccc(O)cc1)C(=O)O [isoDGR-pep] (H-C[βAsp]GRCGVRY-OH; disulfide 1-5 (inferred); N-terminus and C-terminus assumed)
stability under integrin binding assay conditions [1]: stable
